This note sets out measurements from ChEMBL document CHEMBL1201862, “PubChem BioAssay data set” (2004).

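Compound exposure: 48 hours, 5 concentrations, 96-well plates. Abbreviation: GI50, concentration required for 50% inhibition of growth.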 Activity calls are given as the source filed them. No stated cut-off is given here; in the data, active = GI50 up to about 1.1 µM and inactive = higher. Bridge positions count the residues as written; N and C are the ends. Peptide text beside a SMILES is read from it. * marks the point of attachment. Cbz = O=C(OCc1ccccc1)*

Some test systems named below: A549; DU-145; EKVX; HCC 2998; K562; MDA-MB-435; NCI-H23; RXF 393; SF-268; SF-295; SK-MEL-5; SK-OV-3; TK-10; UACC-62; A498; NCI/ADR-RES; OVCAR-5; SNB-19; UO-31.
Assay in all cases: inhibition of tumour cell growth, NCI panel, 48 h

In the case of `Clc1cccc(-c2sc(-c3ccsc3)cc2Cc2ccsc2)c1`, the GI50 with A549, in the assay with DU-145, in the assay on EKVX, in the assay on HCC 2998, in the assay with K562 and with MDA-MB-435 was > 10 µM (inactive) each time. The GI50 in the assay on NCI-H23, with RXF 393, in the assay on SF-268, in the assay on SF-295, with SK-MEL-5 and in the assay with SK-OV-3 was > 10 µM (inactive) each time. Also, the GI50 in the assay with TK-10 and in the assay on UACC-62 was > 10 µM (inactive) throughout.

Turning to `O=C1CC(c2cccc(Br)c2)n2cccc21` (stereo unspecified), the GI50 in the assay on A498 was > 100 µM (inactive); in the assay with A549, 62.1 µM (inactive); with DU-145, > 100 µM (inactive); with EKVX, > 100 µM (inactive); in the assay on HCC 2998, 54.7 µM (inactive); in the assay with K562, 72.3 µM (inactive). For the same compound, the GI50 with MDA-MB-435 is > 100 µM (inactive); with NCI-H23, 63.5 µM (inactive); with NCI/ADR-RES it was > 100 µM (inactive); in the assay with OVCAR-5, > 100 µM (inactive); in the assay on RXF 393, > 100 µM (inactive); in the assay on SF-268 it was 67.8 µM (inactive). For the same compound, the GI50 in the assay on SF-295 is > 100 µM (inactive); in the assay on SK-OV-3, > 100 µM (inactive); with SNB-19, > 100 µM (inactive); with TK-10 it was > 100 µM (inactive); in the assay on UACC-62 it was > 100 µM (inactive); with UO-31, 21.5 µM (inactive).

With `CC(=O)c1c2c(cc3c1CC1(C3)Cc3cc4c(c(C(C)=O)c3C1)CCCC4)CCCC2`, the GI50 in the assay on A498 was > 100 µM (inactive); in the assay on A549 it was > 100 µM (inactive); in the assay on EKVX, > 100 µM (inactive); with HCC 2998 it was > 100 µM (inactive); in the assay with K562, 20.1 µM (inactive); in the assay with MDA-MB-435, 57.7 µM (inactive). The GI50 was > 100 µM (inactive) with NCI-H23; > 100 µM (inactive) with NCI/ADR-RES; > 100 µM (inactive) with OVCAR-5; > 100 µM (inactive) in the assay with RXF 393; > 100 µM (inactive) in the assay on SF-295; 17.4 µM (inactive) in the assay with SK-MEL-5. In addition, the GI50 is > 100 µM (inactive) in the assay on SK-OV-3, > 100 µM (inactive) in the assay with TK-10, > 100 µM (inactive) with UACC-62 and 0.104 µM (active) with UO-31.

On to `CN(C)C(=O)c1nnsc1NN=O`, for which the GI50 in the assay on A549, in the assay on DU-145, in the assay with EKVX, in the assay on HCC 2998, in the assay with K562 and with MDA-MB-435 was > 100 µM (inactive) each time. For the same compound, the GI50 with NCI-H23, in the assay on NCI/ADR-RES, with OVCAR-5, in the assay with RXF 393, with SF-268 and in the assay on SF-295 was > 100 µM (inactive) each time. Further, the GI50 in the assay on SK-MEL-5, in the assay with SK-OV-3, in the assay with SNB-19, with UACC-62 and in the assay with UO-31 was > 100 µM (inactive) each time.

For `CCOC(=O)Cn1c2ccc(Br)cc2c2nc3ccccc3nc21`, the GI50 in the assay on A498, with A549, in the assay on DU-145, with K562, with MDA-MB-435 and with NCI-H23 was > 100 µM (inactive) throughout. The GI50 with NCI/ADR-RES, in the assay on OVCAR-5, in the assay on RXF 393, in the assay with SF-268, with SF-295 and in the assay with SK-MEL-5 was > 100 µM (inactive) each time. Also, the GI50 with SNB-19, in the assay with TK-10, with UACC-62 and in the assay on UO-31 was > 100 µM (inactive) in each case.

With `CNC(=O)C1CCCCNC(=O)CCC(NC(=O)OCc2ccccc2)C(=O)N1` (stereo not drawn) (Cbz-Glu-Lys-NHMe; lactam 1-2; configuration not given here), the GI50 with A498 was 39.5 µM (inactive); in the assay with A549 it was > 100 µM (inactive); with DU-145, > 100 µM (inactive); with EKVX it was > 100 µM (inactive); with K562, > 100 µM (inactive); with MDA-MB-435 it was > 100 µM (inactive). Also, the GI50 in the assay with NCI-H23, in the assay with NCI/ADR-RES, in the assay with OVCAR-5, in the assay with RXF 393, with SF-268 and in the assay with SF-295 was > 100 µM (inactive) in each case. For the same compound, the GI50 in the assay on SK-MEL-5, in the assay on SK-OV-3, in the assay on SNB-19, in the assay on TK-10, in the assay with UACC-62 and in the assay on UO-31 was > 100 µM (inactive) throughout.

For the compound `CC1(C)N=C(/C(Cl)=[N+](/[O-])C(=O)c2ccc(F)cc2)C(C)(C)N1O`, the GI50 with A549 was 45.8 µM (inactive); with DU-145, 29.6 µM (inactive); in the assay on EKVX, 20.1 µM (inactive); in the assay on HCC 2998 it was 18.8 µM (inactive); with K562, 2.53 µM (inactive); in the assay on MDA-MB-435 it was 21.4 µM (inactive). The GI50 with NCI-H23 is 17.1 µM (inactive); in the assay with NCI/ADR-RES, 36.6 µM (inactive); with OVCAR-5, 18 µM (inactive); in the assay on RXF 393, 14.8 µM (inactive); in the assay on SF-268, 16.9 µM (inactive); with SF-295, 31.8 µM (inactive). Also, the GI50 in the assay on SK-MEL-5 is 16.4 µM (inactive); with SK-OV-3, 22.6 µM (inactive); with SNB-19, > 100 µM (inactive); in the assay on TK-10, 16.1 µM (inactive); in the assay on UACC-62, 16.7 µM (inactive); in the assay with UO-31, 21 µM (inactive).

For `CCOC(=O)c1c(-c2ccc(O)c(OC)c2)c(C#N)c(=S)n(C2OC(CO)C(O)C(O)C2O)c1-c1ccccc1` (stereo unspecified), the GI50 with A498, in the assay with A549, in the assay with DU-145, in the assay with EKVX, with HCC 2998 and with K562 was > 100 µM (inactive) each time. Besides, the GI50 in the assay with MDA-MB-435, in the assay on NCI-H23, with NCI/ADR-RES, with OVCAR-5, in the assay on RXF 393 and in the assay on SF-268 was > 100 µM (inactive) each time. For the same compound, the GI50 in the assay with SF-295, with SK-MEL-5, in the assay with SNB-19, in the assay with UACC-62 and in the assay on UO-31 was > 100 µM (inactive) each time.

For `CC(C)[C@]12O[C@H]1[C@@H]1O[C@]13[C@]1(O[C@H]1C[C@H]1C4=C(CC[C@@]13C)C(=O)OC4)[C@@H]2O` [TRIPTOLIDE], the GI50 in the assay with A498 was 0.018 µM (active); in the assay on DU-145 it was 0.0244 µM (active); with EKVX, 0.021 µM (active); in the assay on HCC 2998 it was 0.0183 µM (active); in the assay with K562, 0.017 µM (active); with MDA-MB-435, 0.00693 µM (active). Also, the GI50 in the assay on NCI-H23 is 0.00322 µM (active); in the assay on NCI/ADR-RES, 0.0261 µM (active); with SF-268, 0.0249 µM (active); with SF-295 it was 0.0279 µM (active); in the assay with SK-MEL-5, 0.00697 µM (active); with SK-OV-3, 0.0474 µM (active). The GI50 is 0.104 µM (active) in the assay on SNB-19, < 0.014 µM (active) with TK-10, 0.00421 µM (active) in the assay on UACC-62 and 0.0124 µM (active) with UO-31.

In the case of `OCCNC1=Nc2ccc(Cl)cc2C(=S)N2CSC[C@@H]12`, the GI50 in the assay with A498, in the assay with A549, in the assay on DU-145, in the assay on HCC 2998, in the assay on K562 and in the assay with MDA-MB-435 was > 100 µM (inactive) in each case. Besides, the GI50 in the assay with NCI-H23, in the assay on NCI/ADR-RES, in the assay with OVCAR-5, in the assay with RXF 393, with SF-268 and in the assay with SF-295 was > 100 µM (inactive) throughout. Moreover, the GI50 in the assay on SK-MEL-5, in the assay with SK-OV-3, with SNB-19, with UACC-62 and in the assay on UO-31 was > 100 µM (inactive) in each case.

With `Cc1nc(=O)[nH]c2c1C(=O)N(C(C)C)C(NC(C)C)S2` (stereo unspecified), the GI50 in the assay with A498, in the assay on A549, in the assay with DU-145, in the assay with EKVX, in the assay on HCC 2998 and with K562 was > 100 µM (inactive) throughout. Further, the GI50 with MDA-MB-435, with NCI-H23, in the assay on NCI/ADR-RES, in the assay with OVCAR-5, in the assay on RXF 393 and with SF-295 was > 100 µM (inactive) throughout. In addition, the GI50 with SK-MEL-5 was > 100 µM (inactive); in the assay with SK-OV-3, > 100 µM (inactive); in the assay on SNB-19, > 100 µM (inactive); in the assay on TK-10, > 100 µM (inactive); in the assay on UACC-62, 76 µM (inactive); in the assay on UO-31 it was > 100 µM (inactive).

On to `Cc1nc(Nc2ccc(Cl)cc2)sc1C(=O)NNc1ccc([N+](=O)[O-])cc1[N+](=O)[O-]`, for which the GI50 is 15.9 µM (inactive) with A498; 16.6 µM (inactive) in the assay with A549; 14.9 µM (inactive) with EKVX; 16.3 µM (inactive) in the assay on HCC 2998; 16.8 µM (inactive) in the assay on K562; 17.3 µM (inactive) in the assay on NCI-H23. In addition, the GI50 is 16.3 µM (inactive) in the assay on OVCAR-5; 16.3 µM (inactive) in the assay with RXF 393; 18.7 µM (inactive) with SF-268; 18.1 µM (inactive) in the assay with SF-295; 15.6 µM (inactive) in the assay with SK-MEL-5; 29.2 µM (inactive) with SK-OV-3. For the same compound, the GI50 was 16.7 µM (inactive) with SNB-19, 19.8 µM (inactive) in the assay with TK-10, 14.3 µM (inactive) with UACC-62 and 14.2 µM (inactive) in the assay on UO-31.
